Earlier results in US20130273137A1, “DRUG DELIVERY COATING AND DEVICES” (MASSACHUSETTS EYE & EAR INFIRMARY, priority 2010, published 2013).

System: S. aureus
Conditions: native MIC

**Q.** With CN[C@H](CC(C)C)C(=O)N[C@H]1C(=O)N[C@@H](CC(N)=O)C(=O)N[C@H]2C(=O)N[C@H]3C(=O)N[C@H](C(=O)N[C@H](C(=O)O)c4cc(O)cc(O)c4-c4cc3ccc4O)[C@H](O)c3ccc(c(Cl)c3)Oc3cc2cc(c3O[C@@H]2O[C@H](CO)[C@@H](O)[C@H](O)[C@H]2O[C@H]2C[C@](C)(N)[C@H](O)[C@H](C)O2)Oc2ccc(cc2Cl)[C@H]1O [vancomycin] as the compound, how does the “minimum inhibitory concentration of vancomycin against S. aureus” value read?
**A.** Its value is 0.5 to 2 µg/mL.
